According to patent publication US4320141A, “Antitumor agent” (priority 1977, dated 1982):
Read-outs that look alike come from different tables or passages of the source.

How the values were obtained:
[1] = Acute toxicity in mice (LD50); type: in vivo; details: for LD50: mouse, in vivo
Description: Acute toxicity in mice of α-tocopherol vitamin A acid ester which is the active ingredient of the antitumor agent of this invention is particularly low as shown below, even when any route of administration such as oral route, intraperitoneal route or intravenous injection is applied.

tumor [2] = assay: Therapeutic effect on tumor (DMBA-induced, hairless mice); type: in vivo; details: three weeks, counted on each animal
Protocol: On the back of hairless mice was coated 0.2% DMBA dissolved in olive oil with a brush three times a week for 2 months. After confirmation of development of tumor, test zone comprising groups of five mice was arranged indiscriminately. To these animals was administered α-tocopherol vitamin A acid ester either topically or orally and change of tumor was observed.
the back of animal twice a day with brush.

tumor [3] = assay: Prophylactic effect on development of tumor (DMBA-initiated, croton oil-promoted, coated on depilated back); type: in vivo, ICR mice; details: groups of 10 mice, 4 months
Description: To groups of 10 ICR mice, was applied 0.2% acetone solution of a cancerigenic agent, dimethylbenzanthracene (abbreviated hereinafter as DMBA) by coating said solution on the depilated back of the mice once a day for two weeks. From one week after the final administration of DMBA, an acetone solution of. 0.06% croton oil and a lotion containing an acetone solution of 0.06% croton oil and the active ingredient according to the present invention were coated successively on the back once a day for 4 months.
The lotion used above was prepared according to the following process:
A desired amount of α-tocopherol vitamin A acid ester was dissolved in 10 g of ethyl alcohol together with 0.5 g of […] sorbitan monolaurate and 6 g of glycerin and purified water were added thereto to make up the total 100 g. The solution thus obtained was stirred thoroughly to give lotion.

[4] = test system: experimental tumor developed on epithelial cells; details: prophylaxis or therapy of experimental tumor; cited from earlier work
[5] = in vivo; cited from earlier work
[6] = intravenous, read-out: LD50, intravenous injection
[7] = ip, intraperitoneal, read-out: LD50, intraperitoneal administration
[8] = oral, read-out: LD50, oral administration
[9] = 0.01% lotion, topical twice a day, control 5
[10] = 0.01% lotion, topical twice a day, control 8
[11] = 0.01% lotion, topical twice a day, control 17
[12] = 0.05% lotion, topical twice a day, control 5
[13] = 0.05% lotion, topical twice a day, control 8
[14] = 0.05% lotion, topical twice a day, control 17
[15] = 0.3% lotion, percutaneous, without croton oil
[16] = croton oil + 0.02% lotion, percutaneous, croton oil alone 10
[17] = croton oil + 0.3% lotion, percutaneous, croton oil alone 10

SMILES	LD50 [1, 6]	LD50 [1, 7]	LD50 [1, 8]	Average number of tumor, smaller than 2mm (tumor [2]; [9])	Average number of tumor, 5-2mm (tumor [2]; [10])	Average number of tumor, larger than 5mm (tumor [2]; [11])	Average number of tumor, smaller than 2mm (tumor [2]; [12])	Average number of tumor, 5-2mm (tumor [2]; [13])	Average number of tumor, larger than 5mm (tumor [2]; [14])	Number of animals in which tumor was developed (tumor [3]; [15])	Number of animals in which tumor was developed (tumor [3]; [16])	Number of animals in which tumor was developed (tumor [3]; [17])	other results
CC1=C(/C=C/C(C)=C/C=C/C(C)=C\C(=O)Oc2c(C)c(C)c3c(c2C)CCC(C)(CCCC(C)CCCC(C)CCCC(C)C)O3)C(C)(C)CCC1 (stereo not drawn) [α-tocopherol-13-cis-vitamin A acid ester]	> 1000 mg/kg	> 10000 mg/kg	> 10000 mg/kg	8	3	4	4	6	2	0	4	2	
CC1=C(/C=C/C(C)=C/C=C/C(C)=C/C(=O)Oc2c(C)c(C)c3c(c2C)CCC(C)(CCCC(C)CCCC(C)CCCC(C)C)O3)C(C)(C)CCC1 (stereo not drawn) [α-tocopherol-trans-vitamin A acid ester]	> 1000 mg/kg	> 10000 mg/kg	> 10000 mg/kg	8	5	7	13	6	1	0	5	2	Average number of tumor, smaller than 2mm (tumor [2]; 200mg/kg, oral, control (topical) 5): 10; Average number of tumor, 5-2mm (tumor [2]; 200mg/kg, oral, control (topical) 8): 6; Average number of tumor, larger than 5mm (tumor [2]; 200mg/kg, oral, control (topical) 17): 4; Average number of tumor, smaller than 2mm (tumor [2]; 500mg/kg, oral, control (topical) 5): 6; Average number of tumor, 5-2mm (tumor [2]; 500mg/kg, oral, control (topical) 8): 5; Average number of tumor, larger than 5mm (tumor [2]; 500mg/kg, oral, control (topical) 17): 2; Number of animals in which tumor was developed (tumor [3]; croton oil + 200mg/day, oral, croton oil alone 10): 3
CC1=C(/C=C/C(C)=C/C=C/C(C)=C/C(=O)O)C(C)(C)CCC1 [Vitamin A acid, vitamin A acid, reference compound]													LD50, intraperitoneal administration ([1]; intraperitoneal): 150 mg/kg; LD50, intravenous injection ([1]; intravenous): 92 mg/kg; LD50, oral administration ([1]; oral): 780 mg/kg; Antitumor activity (in words) [4]: effective for prophylaxis of development or therapy of experimental tumor developed on epithelial cells; Toxicity (in words) [5]: quite strongly toxic
